ChEMBL document CHEMBL1909046, “DrugMatrix in vitro pharmacology data”

Columns and labels:
[1] = molecular target: T1, Amine oxidase [flavin-containing] A (Homo sapiens, UniProt P21397); test: DRUGMATRIX: Monoamine Oxidase MAO-A enzyme inhibition (substrate: Kynuramine); set-up: species or system BTI-TN-5B1-4; settings: Not Active = under 50% inhibition at 10 µM
T1 sequence (P21397 whole entry): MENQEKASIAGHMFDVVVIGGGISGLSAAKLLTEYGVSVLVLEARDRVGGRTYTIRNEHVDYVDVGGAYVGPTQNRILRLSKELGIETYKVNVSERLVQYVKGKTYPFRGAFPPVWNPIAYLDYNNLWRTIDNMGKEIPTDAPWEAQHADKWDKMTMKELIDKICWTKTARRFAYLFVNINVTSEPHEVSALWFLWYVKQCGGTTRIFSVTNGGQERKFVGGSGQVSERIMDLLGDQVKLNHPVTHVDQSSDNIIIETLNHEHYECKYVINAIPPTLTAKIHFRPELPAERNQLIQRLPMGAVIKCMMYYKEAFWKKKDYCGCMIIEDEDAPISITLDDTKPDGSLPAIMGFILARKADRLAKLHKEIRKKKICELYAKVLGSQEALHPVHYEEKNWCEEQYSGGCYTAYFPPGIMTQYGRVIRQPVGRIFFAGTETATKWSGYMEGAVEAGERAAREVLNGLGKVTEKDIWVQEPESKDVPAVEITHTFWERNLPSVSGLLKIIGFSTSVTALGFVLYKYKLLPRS

Cytochrome P450 1A2 = molecular target: T2, Cytochrome P450 1A2 (Homo sapiens, UniProt P05177); settings: bti-tn-5b1-4; also: in other assays of this panel Not Active means under 50% inhibition at 10 µM
T2 sequence (P05177 whole entry): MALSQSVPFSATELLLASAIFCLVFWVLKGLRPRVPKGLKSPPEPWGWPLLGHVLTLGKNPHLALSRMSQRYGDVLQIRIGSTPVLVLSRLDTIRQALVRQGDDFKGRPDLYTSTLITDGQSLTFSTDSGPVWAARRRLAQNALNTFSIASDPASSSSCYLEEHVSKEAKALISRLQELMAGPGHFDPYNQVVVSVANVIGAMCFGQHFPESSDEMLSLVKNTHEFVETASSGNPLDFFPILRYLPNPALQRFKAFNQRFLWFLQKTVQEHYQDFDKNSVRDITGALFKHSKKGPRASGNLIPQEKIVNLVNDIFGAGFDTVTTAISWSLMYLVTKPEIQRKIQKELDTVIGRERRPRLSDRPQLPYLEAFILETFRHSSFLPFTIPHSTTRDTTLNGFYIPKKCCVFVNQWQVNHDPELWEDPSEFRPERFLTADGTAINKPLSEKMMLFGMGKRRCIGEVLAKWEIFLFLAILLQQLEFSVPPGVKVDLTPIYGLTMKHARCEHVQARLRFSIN

[2] = molecular target: T3, Alpha-1A adrenergic receptor (Rattus norvegicus, UniProt P43140); test: DRUGMATRIX: Alpha-1A adrenergic receptor radioligand binding (ligand: prazosin); format: cell membranes, Wistar, Submaxillary gland, Membrane; settings: Not Active = under 50% inhibition at 10 µM
T3 sequence (P43140 whole entry): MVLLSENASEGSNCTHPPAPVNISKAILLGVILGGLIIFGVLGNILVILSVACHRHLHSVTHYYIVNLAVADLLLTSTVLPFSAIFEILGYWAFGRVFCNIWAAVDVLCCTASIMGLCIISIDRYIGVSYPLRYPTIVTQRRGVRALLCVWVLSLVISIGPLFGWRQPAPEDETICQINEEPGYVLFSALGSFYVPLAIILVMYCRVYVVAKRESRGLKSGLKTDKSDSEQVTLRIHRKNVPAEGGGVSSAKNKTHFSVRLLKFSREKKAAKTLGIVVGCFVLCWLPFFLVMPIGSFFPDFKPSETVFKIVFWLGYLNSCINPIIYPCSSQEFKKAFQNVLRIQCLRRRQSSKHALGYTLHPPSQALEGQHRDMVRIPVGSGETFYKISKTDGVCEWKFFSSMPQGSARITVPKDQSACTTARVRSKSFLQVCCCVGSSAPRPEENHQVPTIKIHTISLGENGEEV

[3] = molecular target: T4, 5-hydroxytryptamine receptor 1A (Rattus norvegicus, UniProt P19327); format: cell membranes, CHO-K1, Membrane; settings: for Ki: read-out: Ki; as to all read-outs here: in other assays of this panel Not Active means under 50% inhibition at 10 µM
T4 sequence (P19327 whole entry): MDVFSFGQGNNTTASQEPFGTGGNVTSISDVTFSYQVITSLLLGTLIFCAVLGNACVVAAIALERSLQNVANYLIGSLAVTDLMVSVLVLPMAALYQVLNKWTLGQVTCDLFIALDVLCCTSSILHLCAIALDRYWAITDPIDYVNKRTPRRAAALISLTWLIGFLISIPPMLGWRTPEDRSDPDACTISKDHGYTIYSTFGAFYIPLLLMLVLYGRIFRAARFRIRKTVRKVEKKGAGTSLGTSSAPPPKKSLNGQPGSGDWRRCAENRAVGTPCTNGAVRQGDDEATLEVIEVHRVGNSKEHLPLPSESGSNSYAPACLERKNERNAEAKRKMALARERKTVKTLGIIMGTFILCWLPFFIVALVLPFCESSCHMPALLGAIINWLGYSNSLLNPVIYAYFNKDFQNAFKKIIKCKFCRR

Substance-K receptor = molecular target: T5, Substance-K receptor (Homo sapiens, UniProt P21452); format: cell membranes, CHO, Membrane; settings: for Ki: read-out: Ki; as to all read-outs here: in other assays of this panel Not Active means under 50% inhibition at 10 µM
T5 sequence (P21452 whole entry): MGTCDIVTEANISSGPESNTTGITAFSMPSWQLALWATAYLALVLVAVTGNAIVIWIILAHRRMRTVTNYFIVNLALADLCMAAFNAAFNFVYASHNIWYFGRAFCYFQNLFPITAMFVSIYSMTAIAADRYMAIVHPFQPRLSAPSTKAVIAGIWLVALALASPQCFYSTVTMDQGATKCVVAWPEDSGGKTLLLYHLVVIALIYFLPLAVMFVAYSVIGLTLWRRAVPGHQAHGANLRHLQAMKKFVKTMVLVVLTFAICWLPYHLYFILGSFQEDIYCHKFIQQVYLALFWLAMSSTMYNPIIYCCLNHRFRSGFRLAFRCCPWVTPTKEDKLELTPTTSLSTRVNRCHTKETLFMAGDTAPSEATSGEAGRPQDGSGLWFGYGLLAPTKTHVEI

Row | Compound | IC50 ([1]; bti-tn-5b1-4) | IC50 (Cytochrome P450 1A2) | Ki (Cytochrome P450 1A2) | IC50 [2] | IC50 ([3]; read-out: IC50) [nM] | Ki [3] [nM] | IC50 (Substance-K receptor; read-out: IC50) [µM] | Ki (Substance-K receptor) [µM] | IC50 ([3]; cho-k1) | IC50 (Substance-K receptor; cho) | IC50 ([1]; read-out: IC50) [µM] | IC50 ([2]; read-out: IC50) [nM] | Ki ([2]; read-out: Ki) [nM]
1 | CC(C)(C)NC(=O)[C@@H]1C[C@@H]2CCCC[C@@H]2CN1C[C@@H](O)[C@H](Cc1ccccc1)NC(=O)[C@H](CC(N)=O)NC(=O)c1ccc2ccccc2n1 | Not Active | Not Active | Not Active | Not Active | 4270 | 2440 | 6.21 | 2.07 |  |  |  |  | 
2 | CC(=O)[C@@]1(O)CC[C@H]2[C@@H]3C[C@H](C)C4=CC(=O)CC[C@]4(C)[C@H]3CC[C@@]21C | Not Active | Not Active | Not Active | Not Active |  |  |  |  | Not Active | Not Active |  |  | 
3 | N[C@@H](Cc1ccc(N(CCCl)CCCl)cc1)C(=O)O | Not Active | Not Active | Not Active | Not Active |  |  |  |  | Not Active | Not Active |  |  | 
4 | CCCCc1oc2ccccc2c1C(=O)c1cc(I)c(OCCN(CC)CC)c(I)c1 [AMIODARONE] | Not Active |  |  | Not Active |  |  | 19.3 | 6.44 | Not Active |  |  |  | 
5 | OCCN(CCO)c1nc(N2CCCCC2)c2nc(N(CCO)CCO)nc(N3CCCCC3)c2n1 [DIPYRIDAMOLE] | Not Active |  |  | Not Active |  |  |  |  | Not Active | Not Active |  |  | 
6 | Cc1oncc1C(=O)Nc1ccc(C(F)(F)F)cc1 [LEFLUNOMIDE] |  |  |  | Not Active |  |  |  |  | Not Active | Not Active | 20.7 |  | 
7 | c1ccc([C@H]2CN3CCSC3=N2)cc1 [LEVAMISOLE] | Not Active | Not Active | Not Active | Not Active |  |  |  |  | Not Active | Not Active |  |  | 
8 | N[C@@H](Cc1ccc(O)c(O)c1)C(=O)O [LEVODOPA] | Not Active | Not Active | Not Active | Not Active |  |  |  |  | Not Active | Not Active |  |  | 
9 | N[C@@H](Cc1cc(I)c(Oc2ccc(O)c(I)c2)c(I)c1)C(=O)O [LIOTHYRONINE] | Not Active |  |  | Not Active |  |  |  |  | Not Active | Not Active |  |  | 
10 | O=NN(CCCl)C(=O)NC1CCCCC1 [LOMUSTINE] | Not Active | Not Active | Not Active | Not Active |  |  |  |  | Not Active | Not Active |  |  | 
11 | CCOC(=O)N1CCC(=C2c3ccc(Cl)cc3CCc3cccnc32)CC1 [LORATADINE] | Not Active |  |  | Not Active |  |  |  |  | Not Active | Not Active |  |  | 
12 | Cn1ccnc1S [METHIMAZOLE] | Not Active |  |  | Not Active |  |  |  |  | Not Active | Not Active |  |  | 
13 | CC[C@@H](CO)NC(=O)[C@@H]1C=C2c3cccc4[nH]cc(c34)C[C@H]2N(C)C1 [METHYLERGONOVINE] | Not Active | Not Active | Not Active | Not Active | 4.07 | 2.33 |  |  |  | Not Active |  |  | 
14 | COc1nc(C)nc(Cl)c1NC1=NCCN1 [MOXONIDINE] | Not Active | Not Active | Not Active | Not Active | 702 | 401 |  |  |  | Not Active |  |  | 
15 | COc1c(C)c2c(c(O)c1C/C=C(\C)CCC(=O)O)C(=O)OC2 [MYCOPHENOLIC ACID] | Not Active | Not Active | Not Active | Not Active |  |  |  |  | Not Active | Not Active |  |  | 
16 | CN1CCN(CCCN2c3ccccc3Sc3ccc(Cl)cc32)CC1 [PROCHLORPERAZINE] | Not Active |  |  |  | 950 | 543 |  |  |  | Not Active |  | 32 | 13
17 | Nc1nc2ccc(OC(F)(F)F)cc2s1 [RILUZOLE] | Not Active |  |  | Not Active |  |  |  |  | Not Active | Not Active |  |  | 
18 | Cc1nc2n(c(=O)c1CCN1CCC(c3noc4cc(F)ccc34)CC1)CCCC2 [RISPERIDONE] | Not Active | Not Active | Not Active |  |  |  |  |  |  | Not Active |  |  | 
19 | CSc1ccc(/C=C2/C(C)=C(CC(=O)O)c3cc(F)ccc32)cc1 [SULINDAC SULFIDE] | Not Active |  |  | Not Active |  |  |  |  | Not Active | Not Active |  |  | 
